Assay results taken from ChEMBL document CHEMBL4002605, “Synthesis, identification and in vitro biological evaluation of some novel quinoline incorporated 1,3-thiazinan-4-one derivatives” (Bioorg Med Chem Lett, 2017).
Values after ≈ are worked out from the molar mass of the structure shown.

Tests used:
Salmonella typhi = assay: Antibacterial activity against Salmonella typhi MTCC 98 by broth microdilution assay method; type: functional, Salmonella enterica subsp. enterica serovar Typhi; details: Salmonella enterica
Escherichia coli = assay: Antibacterial activity against Escherichia coli MTCC 443 by broth microdilution assay method; type: functional
Streptococcus pneumoniae = assay: Antibacterial activity against Streptococcus pneumoniae MTCC 1936 by broth microdilution assay method; type: functional
[1] = system: Mycobacterium tuberculosis; assay: Antitubercular activity against Mycobacterium tuberculosis H37Rv at 6 ug/mL; type: functional
Clostridium tetani = assay: Antibacterial activity against Clostridium tetani MTCC 449 by broth microdilution assay method; type: functional
Vibrio cholerae = assay: Antibacterial activity against Vibrio cholerae MTCC 3906 by broth microdilution assay method; type: functional
Bacillus subtilis = assay: Antibacterial activity against Bacillus subtilis MTCC 441 by broth microdilution assay method; type: functional
Plasmodium falciparum = assay: Antimalarial activity against Plasmodium falciparum; type: functional

Structure (SMILES)	MIC (Salmonella typhi) [µg/mL]	MIC (Escherichia coli) [µg/mL]	MIC (Streptococcus pneumoniae) [µg/mL]	inhibition at 6 µg/mL [1] [%]	MIC (Clostridium tetani) [µg/mL]	MIC (Vibrio cholerae) [µg/mL]	MIC (Bacillus subtilis) [µg/mL]	IC50 (Plasmodium falciparum) [µg/mL]
O=C1CCSC(c2cccc(F)c2)N1CCCNc1ccnc2cc(Cl)ccc12 (stereo not given)	125 (≈ 291 µM)	250 (≈ 581 µM)	125 (≈ 291 µM)	52	250 (≈ 581 µM)	250 (≈ 581 µM)	125 (≈ 291 µM)	1.12 (≈ 2.6 µM)
O=C(NN1C(=O)CCSC1c1ccc(O)cc1)c1cnc2c(C(F)(F)F)cccc2c1O (stereo not given)	125 (≈ 270 µM)	250 (≈ 539 µM)	250 (≈ 539 µM)	79	250 (≈ 539 µM)	125 (≈ 270 µM)	125 (≈ 270 µM)	1.58 (≈ 3.41 µM)
O=C1CCSC(c2ccc(Br)cc2)N1CCCNc1ccnc2cc(Cl)ccc12 (stereo not given)	62.5 (≈ 127 µM)	125 (≈ 255 µM)	62.5 (≈ 127 µM)	87	100 (≈ 204 µM)	100 (≈ 204 µM)	62.5 (≈ 127 µM)	0.056 (≈ 0.114 µM)
O=C1CCSC(c2cccc(Cl)c2)N1CCCCNc1ccnc2cc(Cl)ccc12 (stereo not given)	125 (≈ 271 µM)	250 (≈ 543 µM)	250 (≈ 543 µM)	49	250 (≈ 543 µM)	125 (≈ 271 µM)	250 (≈ 543 µM)	1.93 (≈ 4.19 µM)
O=C1CCSC(c2ccccc2)N1CCCNc1ccnc2cc(Cl)ccc12 (stereo not given)	500 (≈ 1210 µM)	500 (≈ 1210 µM)	500 (≈ 1210 µM)	47	500 (≈ 1210 µM)	500 (≈ 1210 µM)	500 (≈ 1210 µM)	3.5 (≈ 8.5 µM)
O=C1CCSC(c2ccc(F)cc2)N1CCCNc1ccnc2cc(Cl)ccc12 (stereo not given)	125 (≈ 291 µM)	62.5 (≈ 145 µM)	31.2 (≈ 72.7 µM)	78	100 (≈ 233 µM)	100 (≈ 233 µM)	62.5 (≈ 145 µM)	0.089 (≈ 0.207 µM)
O=C1CCSC(c2ccc(F)cc2)N1CCCCNc1ccnc2cc(Cl)ccc12 (stereo not given)	62.5 (≈ 141 µM)	125 (≈ 282 µM)	100 (≈ 225 µM)	65	125 (≈ 282 µM)	62.5 (≈ 141 µM)	100 (≈ 225 µM)	0.092 (≈ 0.207 µM)
COc1cccc(C2SCCC(=O)N2CCNc2ccnc3cc(Cl)ccc23)c1 (stereo not given)	500 (≈ 1170 µM)	250 (≈ 584 µM)	250 (≈ 584 µM)	58	250 (≈ 584 µM)	500 (≈ 1170 µM)	62.5 (≈ 146 µM)	1.89 (≈ 4.42 µM)
Cc1ccc(C2SCCC(=O)N2CCCCNc2ccnc3cc(Cl)ccc23)cc1 (stereo not given)	500 (≈ 1140 µM)	500 (≈ 1140 µM)	500 (≈ 1140 µM)	40	250 (≈ 568 µM)	250 (≈ 568 µM)	250 (≈ 568 µM)	2.33 (≈ 5.3 µM)
O=C(NN1C(=O)CCSC1c1ccc(Br)cc1)c1cnc2c(C(F)(F)F)cccc2c1O (stereo not given)	31.2 (≈ 59.4 µM)	125 (≈ 237 µM)	125 (≈ 237 µM)	98	31.2 (≈ 59.4 µM)	62.5 (≈ 119 µM)	62.5 (≈ 119 µM)	0.018 (≈ 0.0342 µM)
O=C1CCSC(c2ccc(O)cc2)N1CCCCNc1ccnc2cc(Cl)ccc12 (stereo not given)	250 (≈ 566 µM)	125 (≈ 283 µM)	250 (≈ 566 µM)	38	500 (≈ 1130 µM)	250 (≈ 566 µM)	250 (≈ 566 µM)	2.64 (≈ 5.97 µM)
Cc1ccc(C2SCCC(=O)N2CCCNc2ccnc3cc(Cl)ccc23)cc1 (stereo not given)	500 (≈ 1170 µM)	250 (≈ 587 µM)	250 (≈ 587 µM)	41	500 (≈ 1170 µM)	500 (≈ 1170 µM)	125 (≈ 293 µM)	2.2 (≈ 5.16 µM)
O=C(NN1C(=O)CCSC1c1cccc(Cl)c1)c1cnc2c(C(F)(F)F)cccc2c1O (stereo not given)	250 (≈ 519 µM)	125 (≈ 259 µM)	250 (≈ 519 µM)	71	250 (≈ 519 µM)	250 (≈ 519 µM)	125 (≈ 259 µM)	1.2 (≈ 2.49 µM)
O=C(NN1C(=O)CCSC1c1ccc(Cl)cc1)c1cnc2c(C(F)(F)F)cccc2c1O (stereo not given)	250 (≈ 519 µM)	250 (≈ 519 µM)	250 (≈ 519 µM)	90	125 (≈ 259 µM)	125 (≈ 259 µM)	62.5 (≈ 130 µM)	0.067 (≈ 0.139 µM)
CC1(C)S[C@@H]2[C@H](NC(=O)[C@H](N)c3ccccc3)C(=O)N2[C@H]1C(=O)O [AMPICILLIN]	100 (≈ 286 µM)	100 (≈ 286 µM)	100 (≈ 286 µM)		250 (≈ 715 µM)	100 (≈ 286 µM)	250 (≈ 715 µM)	
O=C(O)c1cn(C2CC2)c2cc(N3CCNCC3)c(F)cc2c1=O [CIPROFLOXACIN]	25 (≈ 75.4 µM)	25 (≈ 75.4 µM)	25 (≈ 75.4 µM)			25 (≈ 75.4 µM)		
CCn1cc(C(=O)O)c(=O)c2cc(F)c(N3CCNCC3)cc21 [NORFLOXACIN]	10 (≈ 31.3 µM)	10 (≈ 31.3 µM)	10 (≈ 31.3 µM)		50 (≈ 157 µM)	10 (≈ 31.3 µM)	100 (≈ 313 µM)	
C=C[C@H]1CN2CC[C@H]1C[C@H]2[C@H](O)c1ccnc2ccc(OC)cc12 [QUININE]								0.271 (≈ 0.835 µM)
CO[C@H]1/C=C/O[C@@]2(C)Oc3c(C)c(O)c4c(O)c(c(/C=N/N5CCN(C)CC5)c(O)c4c3C2=O)NC(=O)/C(C)=C\C=C\[C@H](C)[C@H](O)[C@@H](C)[C@@H](O)[C@@H](C)[C@H](OC(C)=O)[C@@H]1C [RIFAMPIN]				98				
